From the NIST ThermoML archive (doi:10.1016/j.tca.2012.07.004)
Numbers after ± are expanded uncertainties.

Columns and labels:
[1] = 101 kPa, Liquid; for mass density: Vibrating tube method; for viscosity: Vibrating wire viscometry; for speed of sound: ultrasonic interferometer
[2] = xn = mol fraction of the nth substance listed; conditions: 101 kPa, Liquid, x2 = 0; for mass density: Vibrating tube method; for viscosity: Vibrating wire viscometry; for speed of sound: ultrasonic interferometer

CN1CCCC1=O [N-methylpyrrolidone]
mass density ([1]; 298.15 K): 1025.9 ± 0.32 kg/m3
viscosity ([1]; 298.15 K): 1.66 ± 0.1 mPa·s
speed of sound ([1]; 298.15 K): 1572 ± 20 m/s
mass density ([1]; 303.15 K): 1023.74 ± 0.32 kg/m3
viscosity ([1]; 303.15 K): 1.49 ± 0.09 mPa·s
speed of sound ([1]; 303.15 K): 1552 ± 20 m/s
mass density ([1]; 308.15 K): 1019.25 ± 0.32 kg/m3
viscosity ([1]; 308.15 K): 1.39 ± 0.08 mPa·s
speed of sound ([1]; 308.15 K): 1528 ± 20 m/s
mass density ([1]; 313.15 K): 1014.74 ± 0.31 kg/m3
viscosity ([1]; 313.15 K): 1.31 ± 0.08 mPa·s
speed of sound ([1]; 313.15 K): 1520 ± 20 m/s

CN1CCCC1=O [N-methylpyrrolidone] + CC(=O)[O-].C[NH+](C)C
mass density ([2]; 298.15 K): 1025.9 ± 0.32 kg/m3
viscosity ([2]; 298.15 K): 1.66 ± 0.1 mPa·s
speed of sound ([2]; 298.15 K): 1572 ± 20 m/s
mass density ([2]; 303.15 K): 1023.74 ± 0.32 kg/m3
viscosity ([2]; 303.15 K): 1.49 ± 0.09 mPa·s
speed of sound ([2]; 303.15 K): 1552 ± 20 m/s
mass density ([2]; 308.15 K): 1019.25 ± 0.32 kg/m3
viscosity ([2]; 308.15 K): 1.39 ± 0.08 mPa·s
speed of sound ([2]; 308.15 K): 1528 ± 20 m/s
mass density ([2]; 313.15 K): 1014.74 ± 0.31 kg/m3
viscosity ([2]; 313.15 K): 1.31 ± 0.08 mPa·s
speed of sound ([2]; 313.15 K): 1520 ± 20 m/s

CN1CCCC1=O [N-methylpyrrolidone] + CCN(CC)CC.O=P(O)(O)O
mass density ([2]; 298.15 K): 1025.9 ± 0.32 kg/m3
viscosity ([2]; 298.15 K): 1.66 ± 0.1 mPa·s
speed of sound ([2]; 298.15 K): 1572 ± 20 m/s
mass density ([2]; 303.15 K): 1023.74 ± 0.32 kg/m3
viscosity ([2]; 303.15 K): 1.49 ± 0.09 mPa·s
speed of sound ([2]; 303.15 K): 1552 ± 20 m/s
mass density ([2]; 308.15 K): 1019.25 ± 0.32 kg/m3
viscosity ([2]; 308.15 K): 1.39 ± 0.08 mPa·s
speed of sound ([2]; 308.15 K): 1528 ± 20 m/s
mass density ([2]; 313.15 K): 1014.74 ± 0.31 kg/m3
viscosity ([2]; 313.15 K): 1.31 ± 0.08 mPa·s
speed of sound ([2]; 313.15 K): 1520 ± 20 m/s

CN1CCCC1=O [N-methylpyrrolidone] + C[NH+](C)C.O=P([O-])(O)O
mass density ([2]; 298.15 K): 1025.9 ± 0.32 kg/m3
viscosity ([2]; 298.15 K): 1.66 ± 0.1 mPa·s
speed of sound ([2]; 298.15 K): 1572 ± 20 m/s
mass density ([2]; 303.15 K): 1023.74 ± 0.32 kg/m3
viscosity ([2]; 303.15 K): 1.49 ± 0.09 mPa·s
speed of sound ([2]; 303.15 K): 1552 ± 20 m/s
mass density ([2]; 308.15 K): 1019.25 ± 0.32 kg/m3
viscosity ([2]; 308.15 K): 1.39 ± 0.08 mPa·s
speed of sound ([2]; 308.15 K): 1528 ± 20 m/s
mass density ([2]; 313.15 K): 1014.74 ± 0.31 kg/m3
viscosity ([2]; 313.15 K): 1.31 ± 0.08 mPa·s
speed of sound ([2]; 313.15 K): 1520 ± 20 m/s

CN1CCCC1=O [N-methylpyrrolidone] + C[NH+](C)C.O=S(=O)([O-])O
mass density ([2]; 298.15 K): 1025.9 ± 0.3 kg/m3
viscosity ([2]; 298.15 K): 1.66 ± 0.1 mPa·s
speed of sound ([2]; 298.15 K): 1572 ± 20 m/s
mass density ([2]; 303.15 K): 1023.74 ± 0.32 kg/m3
viscosity ([2]; 303.15 K): 1.49 ± 0.09 mPa·s
speed of sound ([2]; 303.15 K): 1552 ± 20 m/s
mass density ([2]; 308.15 K): 1019.25 ± 0.32 kg/m3
viscosity ([2]; 308.15 K): 1.39 ± 0.08 mPa·s
speed of sound ([2]; 308.15 K): 1528 ± 20 m/s
mass density ([2]; 313.15 K): 1014.74 ± 0.31 kg/m3
viscosity ([2]; 313.15 K): 1.31 ± 0.08 mPa·s
speed of sound ([2]; 313.15 K): 1520 ± 20 m/s

CCN(CC)CC.O=P(O)(O)O [triethylammonium dihydrogen phosphate]
mass density ([1]; 298.15 K): 1125.7 ± 0.43 kg/m3
viscosity ([1]; 298.15 K): 64.31 ± 3.9 mPa·s
speed of sound ([1]; 298.15 K): 1794 ± 20 m/s
mass density ([1]; 303.15 K): 1124.68 ± 0.43 kg/m3
viscosity ([1]; 303.15 K): 57.1 ± 3.4 mPa·s
speed of sound ([1]; 303.15 K): 1769 ± 20 m/s
mass density ([1]; 308.15 K): 1123.71 ± 0.42 kg/m3
viscosity ([1]; 308.15 K): 49.53 ± 3 mPa·s
speed of sound ([1]; 308.15 K): 1757 ± 20 m/s
mass density ([1]; 313.15 K): 1122.37 ± 0.42 kg/m3
viscosity ([1]; 313.15 K): 38.31 ± 2.3 mPa·s
speed of sound ([1]; 313.15 K): 1730 ± 20 m/s

CC(=O)[O-].C[NH+](C)C [trimethylammonium acetate]
mass density ([1]; 298.15 K): 1053.85 ± 0.35 kg/m3
viscosity ([1]; 298.15 K): 2.76 ± 0.17 mPa·s
speed of sound ([1]; 298.15 K): 1544 ± 20 m/s
mass density ([1]; 303.15 K): 1049.87 ± 0.35 kg/m3
viscosity ([1]; 303.15 K): 2.37 ± 0.14 mPa·s
speed of sound ([1]; 303.15 K): 1514 ± 20 m/s
mass density ([1]; 308.15 K): 1045.81 ± 0.35 kg/m3
viscosity ([1]; 308.15 K): 2.06 ± 0.12 mPa·s
speed of sound ([1]; 308.15 K): 1508 ± 20 m/s
mass density ([1]; 313.15 K): 1041.7 ± 0.34 kg/m3
viscosity ([1]; 313.15 K): 1.83 ± 0.11 mPa·s
speed of sound ([1]; 313.15 K): 1490 ± 20 m/s

C[NH+](C)C.O=P([O-])(O)O [trimethylammonium dihydrogen phosphate]
mass density ([1]; 298.15 K): 1353.61 ± 0.69 kg/m3
viscosity ([1]; 298.15 K): 7.64 ± 0.46 mPa·s
speed of sound ([1]; 298.15 K): 1672 ± 20 m/s
mass density ([1]; 303.15 K): 1350.62 ± 0.68 kg/m3
viscosity ([1]; 303.15 K): 6.46 ± 0.39 mPa·s
speed of sound ([1]; 303.15 K): 1660 ± 20 m/s
mass density ([1]; 308.15 K): 1347.59 ± 0.68 kg/m3
viscosity ([1]; 308.15 K): 5.61 ± 0.34 mPa·s
speed of sound ([1]; 308.15 K): 1661 ± 20 m/s
mass density ([1]; 313.15 K): 1344.53 ± 0.68 kg/m3
viscosity ([1]; 313.15 K): 5.07 ± 0.31 mPa·s
speed of sound ([1]; 313.15 K): 1664 ± 20 m/s

C[NH+](C)C.O=S(=O)([O-])O [trimethylammonium hydrogen sulfate]
mass density ([1]; 298.15 K): 1467.58 ± 0.83 kg/m3
viscosity ([1]; 298.15 K): 5.1 ± 0.31 mPa·s
speed of sound ([1]; 298.15 K): 1564 ± 20 m/s
mass density ([1]; 303.15 K): 1463.56 ± 0.82 kg/m3
viscosity ([1]; 303.15 K): 4.48 ± 0.27 mPa·s
speed of sound ([1]; 303.15 K): 1560 ± 20 m/s
mass density ([1]; 308.15 K): 1463.5 ± 0.82 kg/m3
viscosity ([1]; 308.15 K): 3.94 ± 0.24 mPa·s
speed of sound ([1]; 308.15 K): 1556 ± 20 m/s
mass density ([1]; 313.15 K): 1455.63 ± 0.82 kg/m3
viscosity ([1]; 313.15 K): 3.16 ± 0.19 mPa·s
speed of sound ([1]; 313.15 K): 1552 ± 20 m/s
